Where two headings read alike, the source gives them in different places.
Assays:
[1] = test system: human promonocytic lymphoma cells (U937); assay: Microculture indicator system (MIS), MTT growth inhibition assay with bivariate serial dilutions; type: cell-based; conditions: for inhibition at 0.01 µg/mL / inhibition at 0.02 µg/mL / inhibition at 0.03 µg/mL / inhibition at 0.06 µg/mL / inhibition at 0.5 µg/mL / inhibition at 1 µg/mL / inhibition at 2 µg/mL / inhibition at 4 µg/mL: Homo sapiens
Description: Microcultures of human promonocytic lymphoma cells (U937) (“the U937 cells”) originally obtained from the American Type Culture Collection (CRL 1593) and later grown by Dr. K. Zoon at the FDA in Bethesda, Md. were set up in a multiwell plate with serial two-fold dilutions of dThd in tissue culture growth medium (RPMI 1640 plus 10% Nurserum and antibiotics). The volume of medium per well was 100 μl and the cell number per well was about 1×10^5. The plate was incubated at 37° C. for 24 hr.
A dye, 3-[4,5-dimethylthiazol-2-yl]-2,5-diphenyl-tetrazolium bromide (MTT), was used as a chromogenic indicator of the metabolically active cell mass. Viable cells metabolize the dye and accumulate a reduced formazan product (blue color) which is solubilized for colorimetry. Mossman T, J. Immunol. Methods 5:55-63 (1983); Li L and Lau B H S, In Vitro Cell Dev. Biol. 29A:531-536 (1993). The MTT assay has been established as useful for measuring either growth inhibition or population killing. Plowman, supra. The MTT method is ideal for cells tested in suspension growth, and can also be used for some cells growing in monolayers. […] Alley, supra; Hofs, supra; Wilson J K et al., Br. J. Cancer 62:189-94 (1990); Plowman, supra.
Thirty μl of 0.5% MTT in phosphate buffered saline was added to each microculture well at the appropriate time. After incubation at 37° C. for 3 hr, 120 μl of an aqueous solution of 10 % SDS with 0.01 N HCl was added to release and dissolve formazan product. This was accomplished by overnight incubation of the plate at 37° C. After careful mixing of the microwell contents by placing the plates on an orbital shaker for 5 minutes the absorbencies were quantitated by spectrophotometry at 570 nm with a Ceres UV 900 HDI microwell plate reader (from Biotek Instruments Inc, Winooski, Vt. 05404-0998). Absorbance data was normalized to a blank well containing all reagents without cells and was collected semi-automatically.
Flat-bottom 96-well plates of tissue culture quality (Corning or Costar) were set up with two-fold serial dilutions of each agent to be tested, e.g., the RA and TCI, using a multichannel pipettor with adjustable volume, e.g., Costar or Rainin, to perform serial mixing. This set-up is diagrammed in FIG. 12. […] In each plate, a total of 59 wells then contained bivariate agent combinations, the bivariate serial dilutions.
Agents were serially diluted by serial mixing in two separate plates or series of wells, and then were combined prior to addition of a fixed volume and density of the U937 cells in a suspension calculated to deliver about 1×10^5 cells per well.
Cells were added after serial dilutions of the dThd had been dispensed. Cells were dispensed at about 10×10^4 cells per microwell to provide optimal sensitivity of detection of cell damage in subsequent calorimetric assays. […] The final volume of medium was 100 μl/well. The plates were further incubated at 37° C. for a total duration of 18-24 h. The dye MTT was used as a chromogenic indicator of the residual and metabolically active cell mass. (Described in Example 1).
In this MTT assay, normalized absorbance data was collected semi-automatically from each microculture well with a Ceres UV 900 HD1 plate reader, from Biotek Instruments Inc., Winooski, V T 05404-0998, stored in an EIA file under the Ceres 900 program, transferred in comma delimited format to a floppy diskette, and imported into a spread sheet program (Borland Quattro Pro) for data manipulations.

[2] = test system: human malignant lymphoma cells (U937); assay: Clonogenic assay in methylcellulose; type: cell-based
From the text: Elimination of a targeted cell population by a cytotoxic agent or agent combinations can not be assured if cells with generative capacity survive. The clonogenic assay in soft agar or methylcellulose is a practical and useful means of determining long-term effects of cytotoxic agents on a malignant cell population, since malignant cells are often capable of growing and forming colonies in these media. The colony forming efficiency of any line or population of malignant cells must be established from the colony count in relationship to the inoculum number and varies over a wide range. […] (same protocol as Example 2A, Table 7). Methylcellulose (MC) solution 2.1-2.3% was obtained from Stem Cell Technologies in Vancouver, B.C. and made up in a series of sterile tubes: (a) 0.4 ml MC stock solution, (b) 50 μl of NuSerum, (c) 2×10^4 cells from the treated cell suspension from the 24-well plate (about 250 μl) and (d) complete growth medium to make a final volume of 1 ml (final cell density=about 2×10^4 cells). A syringe with 18 g. needle was used to transfer load 100 μl of each sample the final cell preparation to each of triplicate wells in a 96-well plate. Thus the final cell number was about 2,000 cells/well. Plates were examined daily for colony formation. At days 3-5, colonies were counted. and colonies were overlaid with MTT: 25 μl, incubated overnight at 37° C. and 100 μl of 4% formalin was added to aid visualization and photography. […] The effective cytotoxicity was calculated as 1−C/C0 where C=the number of colonies formed by a sample of treated cells and C0=the number of colonies formed by an equal sample of untreated cells.

`C[C@@]1(CO)[C@H](O)CC[C@@]2(C)[C@H]1CC[C@H]1C[C@@H]3C[C@@]12CC[C@]3(O)CO` [Aph, aphidicolin] showed an inhibition at 0.01 µg/mL ([1]; U-937, 4 h, U937, Aph 0.01 ug/ml 4 H, K252a 0, read-out: MTT % inhibition, Aph only) of 5%, an inhibition at 0.02 µg/mL ([1]; U-937, 4 h, U937, Aph 0.02 ug/ml 4 H, K252a 0, read-out: MTT % inhibition, Aph only) of 0% and an inhibition at 0.03 µg/mL ([1]; U-937, 4 h, U937, Aph 0.03 ug/ml 4 H, K252a 0, read-out: MTT % inhibition, Aph only) of 1%. It also gave an inhibition at 0.06 µg/mL ([1]; U-937, 4 h, U937, Aph 0.06 ug/ml 4 H, K252a 0, read-out: MTT % inhibition, Aph only) of 14%, an inhibition at 0.5 µg/mL ([1]; U-937, 4 h, U937, Aph 0.50 ug/ml 4 H, K252a 0, read-out: MTT % inhibition, Aph only) of 9% and an inhibition at 1 µg/mL ([1]; U-937, 4 h, U937, Aph 1.00 ug/ml 4 H, K252a 0, read-out: MTT % inhibition, Aph only) of 14%. For the same compound, the inhibition at 2 µg/mL ([1]; U-937, 4 h, U937, Aph 2.00 ug/ml 4 H, K252a 0, read-out: MTT % inhibition, Aph only) was 24%, the inhibition at 4 µg/mL ([1]; U-937, 4 h, U937, Aph 4.00 ug/ml 4 H, K252a 0, read-out: MTT % inhibition, Aph only) was 38% and the inhibition at 0.01 µg/mL ([1]; U-937, U937, total 18 H, STSP 14 H, Aph 4 H, Aph 0.01 ug/ml, STSP nM by row: r7 100, r8 50, r9 25, r10 12.5, r11 6.25, r12 3.13, r13-r14 0, read-out: Growth inhibition (MTT)) was 1%. For the same compound, the inhibition at 0.02 µg/mL ([1]; U-937, U937, total 18 H, STSP 14 H, Aph 4 H, Aph 0.02 ug/ml, STSP nM by row: r7 100, r8 50, r9 25, r10 12.5, r11 6.25, r12 3.13, r13-r14 0, read-out: Growth inhibition (MTT)) was 7%, the inhibition at 0.03 µg/mL ([1]; U-937, U937, total 18 H, STSP 14 H, Aph 4 H, Aph 0.03 ug/ml, STSP nM by row: r7 100, r8 50, r9 25, r10 12.5, r11 6.25, r12 3.13, r13-r14 0, read-out: Growth inhibition (MTT)) was 6% and the inhibition at 0.06 µg/mL ([1]; U-937, U937, total 18 H, STSP 14 H, Aph 4 H, Aph 0.06 ug/ml, STSP nM by row: r7 100, r8 50, r9 25, r10 12.5, r11 6.25, r12 3.13, r13-r14 0, read-out: Growth inhibition (MTT)) was 9%. The inhibition at 0.5 µg/mL ([1]; U-937, U937, total 18 H, STSP 14 H, Aph 4 H, Aph 0.50 ug/ml, STSP nM by row: r7 100, r8 50, r9 25, r10 12.5, r11 6.25, r12 3.13, r13-r14 0, read-out: Growth inhibition (MTT)) was 21%, the inhibition at 1 µg/mL ([1]; U-937, U937, total 18 H, STSP 14 H, Aph 4 H, Aph 1.00 ug/ml, STSP nM by row: r7 100, r8 50, r9 25, r10 12.5, r11 6.25, r12 3.13, r13-r14 0, read-out: Growth inhibition (MTT)) was 22% and the inhibition at 2 µg/mL ([1]; U-937, U937, total 18 H, STSP 14 H, Aph 4 H, Aph 2.00 ug/ml, STSP nM by row: r7 100, r8 50, r9 25, r10 12.5, r11 6.25, r12 3.13, r13-r14 0, read-out: Growth inhibition (MTT)) was 31%. The inhibition at 4 µg/mL ([1]; U-937, U937, total 18 H, STSP 14 H, Aph 4 H, Aph 4.00 ug/ml, STSP nM by row: r7 100, r8 50, r9 25, r10 12.5, r11 6.25, r12 3.13, r13-r14 0, read-out: Growth inhibition (MTT)) was 30%, the “Potentiation of DNA damage by STSP as RA” value ([1]; U937, concentrations less than IC40, STSP as the TCI) was “proved successful in potentiating DNA damage by STSP” and the “combined results ratio, Aph only (baseline line)” value ([1]; U937, Aph alone, every Aph concentration 4.00-0.01 ug/ml) was 1.0. It also gave a Combined results ratio ([1]; U937, total 18 H, STSP 14 H, Aph 4 H, Aph 0.01 ug/ml, STSP nM by row: r7 100, r8 50, r9 25, r10 12.5, r11 6.25, r12 3.13, r13-r14 0) of 1.0, a Combined results ratio ([1]; U937, total 18 H, STSP 14 H, Aph 4 H, Aph 0.02 ug/ml, STSP nM by row: r7 100, r8 50, r9 25, r10 12.5, r11 6.25, r12 3.13, r13-r14 0) of 1.0 and a Combined results ratio ([1]; U937, total 18 H, STSP 14 H, Aph 4 H, Aph 0.03 ug/ml, STSP nM by row: r7 100, r8 50, r9 25, r10 12.5, r11 6.25, r12 3.13, r13-r14 0) of 1.0. It also gave a Combined results ratio ([1]; U937, total 18 H, STSP 14 H, Aph 4 H, Aph 0.06 ug/ml, STSP nM by row: r7 100, r8 50, r9 25, r10 12.5, r11 6.25, r12 3.13, r13-r14 0) of 1.0, a Combined results ratio ([1]; U937, total 18 H, STSP 14 H, Aph 4 H, Aph 0.50 ug/ml, STSP nM by row: r7 100, r8 50, r9 25, r10 12.5, r11 6.25, r12 3.13, r13-r14 0) of 1.0 and a Combined results ratio ([1]; U937, total 18 H, STSP 14 H, Aph 4 H, Aph 1.00 ug/ml, STSP nM by row: r7 100, r8 50, r9 25, r10 12.5, r11 6.25, r12 3.13, r13-r14 0) of 1.0. It also gave a Combined results ratio ([1]; U937, total 18 H, STSP 14 H, Aph 4 H, Aph 2.00 ug/ml, STSP nM by row: r7 100, r8 50, r9 25, r10 12.5, r11 6.25, r12 3.13, r13-r14 0) of 1.0 and a Combined results ratio ([1]; U937, total 18 H, STSP 14 H, Aph 4 H, Aph 4.00 ug/ml, STSP nM by row: r7 100, r8 50, r9 25, r10 12.5, r11 6.25, r12 3.13, r13-r14 0) of 1.0.
In the case of `CN[C@@H]1C[C@H]2O[C@@](C)([C@@H]1OC)n1c3ccccc3c3c4c(c5c6ccccc6n2c5c31)C(=O)NC4` [STSP, staurosporine], the Emax at 0.02 µM ([2]; Homo sapiens, U-937, 96 h, read-out: Maximum effective cytotoxicity (1-C/C0), clonogenic) is reported as 40 to 60% and the “Effective cytotoxicity, clonogenic” value ([2]; optimal synergistic match of dThd and STSP, 96 hours) is reported as “almost total cytotoxicity”.
